# Experiments:
# NR4A3 mRNA = NR4A3 mRNA under OGD-R, HUVEC (real-time fluorescent quantitative PCR); assay type: cell-based, human; conditions: 10 μM given at restoration
# Experimental: (§1) HUVEC cells were cultured in modified DMEM medium containing 10% fetal bovine serum. When the cells reached about 80% confluence, the cells were digested with 0.25% trypsin, and then pipetted evenly with modified DMEM containing 10% […]. The cell concentration was adjusted to 1×10^5 cells/mL, and the cells were seeded at 400 uL/well in a 24-well plate, and the experiment was carried out when the cells grew to about 70% confluence. RAOEC cells were cultured in high-glucose DMEM medium containing 10% fetal bovine serum, and the seeding conditions were the same as those of HUVEC. During the OGD-R injury treatment, the hypoxia workstation was set to have an oxygen concentration of 1% (1% O2, 5% CO2, 94% N2), a temperature of 37° C., and a humidity of 85%. A sugar-free DMEM medium was placed in the hypoxia workstation for pre-hypoxia for 3 hours. The medium in the culture plate was aspirated, and the plate was washed twice with preheated sugar-free DMEM medium, and 100 uL of sugar-free DMEM medium was added to each well. The culture plate was placed in the hypoxia workstation, and 300 uL of pre-hypoxic sugar-free DMEM medium was added to each well, and then the culture plate was placed in the hypoxia workstation for additional hypoxia for 4 hours. Restoration was then performed. […]
# NR4A3 [1] = assay: NR4A3 ubiquitination after OGD-R in vascular endothelial cells (immunoprecipitation with anti-ubiquitin antibodies); assay type: cell-based
# Experimental: as §1, with “performed. The culture plate was taken out, and the sugar-free DMEM medium was replaced with 400 uL of normal medium containing 10% fetal bovine serum, and then the plate was placed in a 37° C. 5% CO2 cell incubator for culturing for 24 hours or a specified time period. For the cells in the normal group, it was only replaced with 400 uL of new normal medium containing 10% fetal bovine serum.” for “performed.”
# The cells were washed twice with pre-cooled PBS, then scraped off with a cell scraper and transferred to a 1.5 mL centrifuge tube, and centrifugation was performed at 4° C. and 1000 g for 5 minutes. […] Each protein sample was then quantified using the BCA protein quantification kit. After protein quantification, IP lysis buffer was used to adjust the protein concentration of each sample to 1 mg/mL. […]
# NR4A3 [2] = assay: NR4A3 protein expression under OGD-R, HUVEC (Western blot, immunofluorescence); assay type: cell-based, human; conditions: OGD 4 hours, restoration 24 hours, 1, 3, 10 μM given at restoration
# Experimental: as §1, with “performed. The culture plate was taken out, and the sugar-free DMEM medium was replaced with 400 uL of normal medium containing 10% fetal bovine serum, and then the plate was placed in a 37° C. 5% CO2 cell incubator for culturing for 24 hours or a specified time period. For the cells in the normal group, it was only replaced with 400 uL of new normal medium containing 10% fetal bovine serum.” for “performed.”
# The cells were washed twice with pre-cooled PBS, then scraped off with a cell scraper and transferred to a 1.5 mL centrifuge tube, and centrifugation was performed at 4° C. and 1000 g for 5 minutes. […] Each protein sample was then quantified using the BCA protein quantification kit. After protein quantification, protein lysis buffer was used to adjust the protein concentration of each sample to be consistent with the protein sample with the lowest concentration, and then each protein sample was sufficiently mixed with 5× protein loading buffer at a ratio of 4:1. […]
smiles,measurement,setting,value
"C[C@@]12CCCC1C1C[C@@H](O)[C@]3(O)C[C@@H](O)CC[C@]3(C)C1CC2 (stereo partly drawn) [YC-6, 5α-androst-3β,5,6β-triol]",transcription level of NR4A3 (relative mRNA expression),NR4A3 mRNA,did not significantly up-regulate the transcription level of NR4A3
same,ubiquitination of NR4A3 on co-administration with MG132,NR4A3 [1]; YC-6 10 μM with MG132 100 nM after restoration,did not significantly increase the ubiquitination of NR4A3
same,ubiquitination modification of NR4A3 induced by restoration,"NR4A3 [1]; YC-6 10 μM, MG132 100 nM, given at restoration",could inhibit the ubiquitination of NR4A3 induced by restoration
same,NR4A3 protein expression,NR4A3 [2],dose-dependently increase the protein expression of NR4A3
